Patent publication US20080145313A1, “Compositions and Methods for the Treatment and Prevention of Neoplastic Disorders” (Genesis Research & Development Corporation Limited, priority 2006, published 2008)

Key:
A549 cells = assay: Growth inhibition of siRNA-transfected A549 cells, SYBR Green I DNA content; type: cell-based, human; settings: A549 cells, 10 nM siRNA, DNA content 96 hours after transfection, transporter gene targets
Outline: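 A549 cells reverse-transfected with 10 nM Stealth siRNAs via Lipofectamine RNAiMAX, seeded at 5×10^3 cells/cm^2 in RPMI 1640/10% FCS; non-specific siRNA control. DNA content read 96 h post-transfection by SYBR Green I fluorescence (ex 485/em 535 nm) after freeze-thaw and Triton X-100 lysis; mean of three wells.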

[1] = test system: target transcript mRNA in A549 cells; assay: Level of mRNA of target transcript in A549 cells by quantitative RT-PCR (Tables 12 and 13); type: cell-based, human; settings: 24 h post-transfection; for mRNA knockdown of transporter gene target transcript, 0.1 nM: 0.1 nM siRNA; for mRNA knockdown of transporter gene target transcript, 1 nM: 1 nM siRNA; for mRNA knockdown of transporter gene target transcript, 10 nM: 10 nM siRNA
Outline: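 A549 cells were transfected with siRNA at 0.1, 1.0 and 10 nM. RNA was extracted 24 h later, reverse-transcribed with random primers, and target mRNA quantified by SYBR Green qRT-PCR. Values were normalised to housekeeping genes HPRT and Lamin.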

Substance	Growth Inhibition in A549 cells by 10 nM siRNA (A549 cells)	mRNA knockdown of transporter gene target transcript, 0.1 nM [1]	mRNA knockdown of transporter gene target transcript, 1 nM [1]	mRNA knockdown of transporter gene target transcript, 10 nM [1]
SEQ ID NO: 4923: siRNA targeting SLC16A1 (MCT1) (chain 1 AAATAATTAGGACGACGCCACATGC; chain 2 AAAUAAUUAGGACGACGCCACAUGC; chemistry not given here; one strand in two spellings)	− (no growth inhibition)	+ (50-70% mRNA knockdown)	++ (70-90% mRNA knockdown)	+++ (>90% mRNA knockdown)
SEQ ID NO: 4925: siRNA targeting SLC25A1 (CIC) (chain 1 TAATCACATCCAGAGGAGTGTTTCC; chain 2 UAAUCACAUCCAGAGGAGUGUUUCC; chemistry not given here; one strand in two spellings)	− (no growth inhibition)	++ (70-90% mRNA knockdown)	++ (70-90% mRNA knockdown)	
SEQ ID NO: 4926: siRNA targeting SLC25A1 (CIC) (chain 1 AGTCCCACGTGTTCCGGTATTTGTG; chain 2 AGUCCCACGUGUUCCGGUAUUUGUG; chemistry not given here; one strand in two spellings)	++ (inhibits by at least 75%)	++ (70-90% mRNA knockdown)	++ (70-90% mRNA knockdown)	
SEQ ID NO: 4927: siRNA targeting SLC25A1 (CIC) (chain 1 TGCCTTTGTAGAATGCCTTGAGCCC; chain 2 UGCCUUUGUAGAAUGCCUUGAGCCC; chemistry not given here; one strand in two spellings)	− (no growth inhibition)	++ (70-90% mRNA knockdown)	++ (70-90% mRNA knockdown)	
SEQ ID NO: 4928: siRNA targeting SLC25A10 (DIC) (chain 1 AATAAAGCTGGCGACAAAGTGAGTG; chain 2 AAUAAAGCUGGCGACAAAGUGAGUG; chemistry not given here; one strand in two spellings)	++ (inhibits by at least 75%)	++ (70-90% mRNA knockdown)	++ (70-90% mRNA knockdown)	
SEQ ID NO: 4929: siRNA targeting SLC25A10 (DIC) (chain 1 TAGGTCATCTGTCTGCACAGCGAGG; chain 2 UAGGUCAUCUGUCUGCACAGCGAGG; chemistry not given here; one strand in two spellings)	− (no growth inhibition)	− (<50% mRNA knockdown)	+ (50-70% mRNA knockdown)	
SEQ ID NO: 4930: siRNA targeting SLC25A10 (DIC) (chain 1 TCCTGACGTTGACCAAGTCTGCGGG; chain 2 UCCUGACGUUGACCAAGUCUGCGGG; chemistry not given here; one strand in two spellings)	− (no growth inhibition)	++ (70-90% mRNA knockdown)	++ (70-90% mRNA knockdown)	
SEQ ID NO: 4931: siRNA targeting SLC29A1 (ENT1) (chain 1 TTGAAGATGGCACTGAGAGAGTTCC; chain 2 UUGAAGAUGGCACUGAGAGAGUUCC; chemistry not given here; one strand in two spellings)	++ (inhibits by at least 75%)	++ (70-90% mRNA knockdown)	++ (70-90% mRNA knockdown)	+++ (>90% mRNA knockdown)
SEQ ID NO: 4933: siRNA targeting SLC29A1 (ENT1) (chain 1 TGGAGACTGAAACTCCAGATTCCTC; chain 2 UGGAGACUGAAACUCCAGAUUCCUC; chemistry not given here; one strand in two spellings)	+ (inhibits by at least 50%)	− (<50% mRNA knockdown)	++ (70-90% mRNA knockdown)	++ (70-90% mRNA knockdown)
SEQ ID NO: 4934: siRNA targeting SLC29A2 (ENT2) (chain 1 TGTGAAGACCAACACAAGGCACAGC; chain 2 UGUGAAGACCAACACAAGGCACAGC; chemistry not given here; one strand in two spellings)	− (no growth inhibition)	+ (50-70% mRNA knockdown)	− (<50% mRNA knockdown)	
SEQ ID NO: 4935: siRNA targeting SLC29A2 (ENT2) (chain 1 TAACACACGATGGACATGAGGATGC; chain 2 UAACACACGAUGGACAUGAGGAUGC; chemistry not given here; one strand in two spellings)	− (no growth inhibition)	+ (50-70% mRNA knockdown)	+ (50-70% mRNA knockdown)	
SEQ ID NO: 4936: siRNA targeting SLC29A2 (ENT2) (chain 1 AAGATCCAGGGTCAGAGCTACTTTC; chain 2 AAGAUCCAGGGUCAGAGCUACUUUC; chemistry not given here; one strand in two spellings)	− (no growth inhibition)	− (<50% mRNA knockdown)	− (<50% mRNA knockdown)	
SEQ ID NO: 4937: siRNA targeting ATP2B1 (PMCA1) (chain 1 ATTTATGTAAGCTTGAACGACTGTC; chain 2 AUUUAUGUAAGCUUGAACGACUGUC; chemistry not given here; one strand in two spellings)	− (no growth inhibition)	++ (70-90% mRNA knockdown)	++ (70-90% mRNA knockdown)	
SEQ ID NO: 4938: siRNA targeting ATP2B1 (PMCA1) (chain 1 AAATCTTGTCTATCCTCTCTTGCTC; chain 2 AAAUCUUGUCUAUCCUCUCUUGCUC; chemistry not given here; one strand in two spellings)	− (no growth inhibition)	+ (50-70% mRNA knockdown)	++ (70-90% mRNA knockdown)	
SEQ ID NO: 4939: siRNA targeting ATP2B1 (PMCA1) (chain 1 ATTAACAGTAAGTTGGAACTGAAGG; chain 2 AUUAACAGUAAGUUGGAACUGAAGG; chemistry not given here; one strand in two spellings)	− (no growth inhibition)	+ (50-70% mRNA knockdown)	++ (70-90% mRNA knockdown)	
